Results reported in patent publication US12685740B2, “Compositions for the elimination of senescent cells” (Universität für Bodenkultur Wien, priority 2018, dated 2026).
Where two headings read alike, the source gives them in different places.

Assays:
[1] = tested on: Doxorubicin-induced premature senescent HDF76, HDF85, HDF161; assay: Rescue of senolytic effect by manipulating cPLA2 activity, viability after 72 hours (FIG. 18); assay type: cell-based
Description: Doxorubicin-induced premature senescent HDF76, HDF85, HDF161 (SIPS) and quiescent control cells (Q) were either treated for 72 hours with the combination of 1 μM ACSL4 inhibitor Triacsin C (TrC) and 1 μM ALOXS inhibitor MK886 alone or in addition with either 2.5 μM A23187 (cPLA2 activator) or 12.5 μM ASB14780 (cPLA2 inhibitor).
This was also the case, when the enzymatic activity of the cytosolic phospholipase A2 was reduced by the small molecule inhibitor ASB14780 (Sigma Aldrich, SML1913).

[2] = tested on: H2O2-induced premature senescent human dermal fibroblasts; assay: Alamar blue viability assay, H2O2-induced premature senescent (SIPS) vs quiescent HDFs (FIG. 4); assay type: cell-based; conditions: single treatment, 9 days, SIPS vs quiescent (Q) HDFs
Description: Cells were seeded at a cell density of 2,800 cells/cm^2 one day prior to the treatment. The cells were treated nine times over a period of 11 days with 60-80 μM H2O2 supplemented to the media for one hour followed by a media change. Alternatively, depending on cell type cells were seeded at a cell density of 3,500-7,000 cells/cm^2 one day prior to the treatment and SIPS was induced with 100-200 nM doxorubicin ([…], Sigma-Aldrich) supplemented to the medium for 6 days. Induction of senescence was verified by SA-β-gal staining, p21 expression, and absence of BrdU incorporation. AnnexinV/PI staining was performed to assure that the treatment was non-lethal and SIPS HDFs were cultured and monitored for over 50 days to assure that the induced growth arrest was permanent ([…] et al. 2018). Alamar blue (DAL1100, Thermo Fisher Scientific) assay was performed according to the manufacturer's instructions. […] The control was treated with the respective concentration of the solvent (DMSO). Premature senescence was induced in HDF with chronic oxidative stress treatment (9 doses of H2O2 treatment over the period of 11 days). Quiescent cells were used as control. […] Subsequently, the viability was assessed using an alamar blue assay (Thermo Fisher Scientific).

[3] = tested on: doxorubicin-induced premature senescent HUVECs; assay: Alamar blue viability assay, doxorubicin-induced SIPS vs quiescent HUVECs (FIG. 5); assay type: cell-based, human; conditions: single treatment, 9 days, SIPS vs quiescent (Q) HUVECs
Description: (§1) Cells were seeded at a cell density of 2,800 cells/cm^2 one day prior to the treatment. The cells were treated nine times over a period of 11 days with 60-80 μM H2O2 supplemented to the media for one hour followed by a media change. Alternatively, depending on cell type cells were seeded at a cell density of 3,500-7,000 cells/cm^2 one day prior to the treatment and SIPS was induced with 100-200 nM doxorubicin (D1515, Sigma-Aldrich) supplemented to the medium for 6 days. Induction of senescence was verified by SA-β-gal staining, p21 expression, and absence of BrdU incorporation. AnnexinV/PI staining was performed to assure that the treatment was non-lethal and SIPS HDFs were cultured and monitored for over 50 days to assure that the induced growth arrest was permanent (Terlecki-Zaniewicz et al. 2018).
(§2) Alamar blue (DAL1100, Thermo Fisher Scientific) assay was performed according to the manufacturer's instructions. Cells were treated with the respective substances for 9 days with a media change on day 0, 3 and 6. The control was treated with the respective concentration of the solvent (DMSO).
Premature senescence was induced in HUVECs with doxorubicin (Sigma-Aldrich), which was supplemented to the growth media for 6 days. Treatment with senolytic substances started 8 days after completion of the SIPS treatment to allow for cells to enter senescence. Quiescent cells were used as control. Growth media was supplemented with senolytic substances for 9 days with media changes every 3 days. All samples, including the control, contained the same concentration of solvent (DMSO). Subsequently, the viability was assessed using an alamar blue assay (Thermo Fisher Scientific) (FIG. 5).

[4] = tested on: Doxorubicin-induced premature senescent RPTEC1; assay: Alamar blue viability assay, doxorubicin-induced SIPS vs quiescent RPTEC1 (FIG. 13); assay type: cell-based, human
Description: as §1, §2

[5] = tested on: Doxorubicin-induced premature senescent HDF164; assay: Alamar blue viability assay, doxorubicin-induced SIPS vs quiescent HDF164 (FIG. 7, 14); assay type: cell-based, human; conditions: for EC50: read-out: EC50 for senescent cells
Description: as §1, §2
(§3) Premature senescence was induced in adult and foreskin HDFs with doxorubicin, which was supplemented to the growth media for 6 days. Treatment with senolytic substances started 8 days after completion of the SIPS treatment to allow for cells to enter senescence. Quiescent cells were used as control. Growth media was supplemented with senolytic substances for 9 days with media changes every 3 days. All samples, including the control, contained the same concentration of solvent (DMSO). Subsequently, the viability was assessed using an alamar blue assay (Thermo Fisher Scientific).
Premature senescence was induced in adult HDFs with doxorubicin, which was supplemented to the growth media for 6 days. Treatment with senolytic substances started 8 days after completion of the SIPS treatment to allow cells to enter senescence. Quiescent cells were used as control. Growth media was supplemented with senolytic substances for 9 days with media changes every 3 days. All samples, including the control, contained the same concentration of solvent (DMSO). Subsequently, the viability was assessed using an alamar blue assay (Thermo Fisher Scientific).

[6] = tested on: Doxorubicin-induced premature senescent HDF161; assay: Alamar blue viability assay, doxorubicin-induced SIPS vs quiescent HDF161 (FIG. 6); assay type: cell-based, human; conditions: for EC50: read-out: EC50 for senescent cells
Description: as §1, §2, §3

[7] = tested on: intracellular levels of AA of HDF161; assay: Quantification of intracellular arachidonic acid by ELISA (FIG. 17b); assay type: cell-based, human; conditions: 10 μM MK886 together with 100 μM Diclofenac for 6 hrs, vs solvent (1% DMSO)
Description: The cells were harvested by trypsinization, centrifuged at 1000 g and 4° C. for 5 min and washed three times with cold PBS. The Cells were counted using a Vi-CELL XR (Beckman Coulter) automated cell counter and the cell pellets were resuspended in cold PBS to obtain a cell suspension with 2000-5000 cells/μl. Subsequently the cells were lysed by 30 cycles of sonication (30 s on, 30 s off) in a Bioruptor (Diagenode). Cell debris was removed by 10 min centrifugation at 1500 g and 4° C. and the supernatant was analyzed with an ELISA assay (Novus Biologicals; NBP2-66372) according to the manufacturer's instructions.
In order to verify, whether novel senolytics can be identified in an efficient screen measuring the intracellular levels of AA, an ELISA test (Novus Biologicals; NBP2-66372) was used according to the manufacturer's instructions to first, confirm that novel senolytics identified in the examples above indeed lead to an accumulation of intracellular AA, and second, to screen for compounds, which cause an increase of intracellular levels of AA in senescent HDFs.

[8] = tested on: Doxorubicin-induced premature senescent fHDF166; assay: Alamar blue viability assay, doxorubicin-induced SIPS vs quiescent fHDF166 (FIG. 8, 15); assay type: cell-based, human; conditions: for EC50: read-out: EC50 for senescent cells
Description: as §1, §2, §3
In order to test this, premature senescence was induced in foreskin HDFs with doxorubicin, which was supplemented to the growth media for 6 days. Treatment with senolytic substances started 8 days after completion of the SIPS treatment to allow for cells to enter senescence. Quiescent cells were used as control. Growth media was supplemented with senolytic substances for 9 days with media changes every 3 days. All samples, including the control, contained the same concentration of solvent (DMSO). Subsequently, the viability was assessed using an alamar blue assay (Thermo Fisher Scientific).

[9] = tested on: Doxorubicin-induced premature senescent HDF76, HDF161, HDF164; assay: Alamar blue viability assay, SIPS vs quiescent HDF, combined data of three donors (FIG. 9, 11); assay type: cell-based, human
Description: as §1, §2, §3

cyclooxygenase = conditions: Wang et al. 2000; read-out: IC50 of inhibiting cyclooxygenase activity; cited from earlier work
[10] = tested on: Doxorubicin-induced premature senescent HLF102; assay: Alamar blue viability assay, doxorubicin-induced SIPS vs quiescent HLF102 (FIG. 12); assay type: cell-based, human
Description: as §1, §2

COX-1 = COX-1 (Homo sapiens, UniProt P23219); conditions: cited from earlier work
Sequence of COX-1 (P23219 24-599): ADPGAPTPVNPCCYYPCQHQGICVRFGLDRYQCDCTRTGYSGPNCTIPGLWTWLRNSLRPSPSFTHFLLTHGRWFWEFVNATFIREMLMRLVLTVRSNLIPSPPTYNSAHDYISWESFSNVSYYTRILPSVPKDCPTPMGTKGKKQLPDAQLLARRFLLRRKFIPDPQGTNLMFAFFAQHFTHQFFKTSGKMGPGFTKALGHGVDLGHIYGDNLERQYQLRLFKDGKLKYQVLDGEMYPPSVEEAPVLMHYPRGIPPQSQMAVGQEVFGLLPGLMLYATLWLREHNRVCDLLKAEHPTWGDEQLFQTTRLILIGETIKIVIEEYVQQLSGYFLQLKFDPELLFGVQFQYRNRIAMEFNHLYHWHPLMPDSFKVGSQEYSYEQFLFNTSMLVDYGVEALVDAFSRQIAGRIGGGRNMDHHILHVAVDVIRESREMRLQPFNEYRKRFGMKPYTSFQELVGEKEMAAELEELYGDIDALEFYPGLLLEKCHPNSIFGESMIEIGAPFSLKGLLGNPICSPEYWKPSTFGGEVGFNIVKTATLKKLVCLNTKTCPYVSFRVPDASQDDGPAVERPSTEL

[11] = 12.5 μM ASB14780 added to 1 μM TrC and 1 μM MK886, 72 hours
[12] = MK886 combined with 50 μM Diclofenac
[13] = increasing MK886 combined with 50 μM Diclofenac
[14] = increasing MK886 combined with 0.4 mM ASA
[15] = single treatment (DQ: 15 μM Quercetin with increasing Dasatinib)

With `CNc1ccc2oc(C[C@H]3O[C@@]4(CC[C@H]3C)O[C@H]([C@H](C)C(=O)c3ccc[nH]3)[C@H](C)C[C@H]4C)nc2c1C(=O)O` [A23187] the “effect on the senolytic effect of 1 μM TrC and 1 μM MK886” value ([1]; 2.5 μM A23187 added, 72 hours) was “abolishing the senolytic effect”.
In the case of `CC(=O)Oc1ccccc1C(=O)O` [ASA, acetylsalicylic acid], the senolytic effect [2] is reported as “significant senolytic effect” and the senolytic effect [3] is reported as “significant senolytic effect”.
With `NC(CO)(CO)CO.O=C(O)CCc1ccc2c(c1)c(CCc1ccccc1)cn2-c1ccc(Oc2ccccc2)cc1` [ASB14780] the “effect on the cytotoxic effect of TrC and MK886 on senescent cells” value [1, 11] was “reduced the cytotoxic effect” and the “viability of quiescent cells” value [1, 11] was “only affected to a minor extent”.
In the case of `O=C(O)Cc1ccccc1Nc1c(Cl)cccc1Cl` [Diclofenac], the “EC50 fold change between senescent and quiescent cells” value ([4]; single treatment) is reported as 3.02 fold.
In the case of `CC1(C)Cc2c(-c3ccccc3)c(-c3ccc(Cl)cc3)c(CC(=O)O)n2C1` [Licofelone], the senolytic effect [3] is reported as “significant senolytic effect”.
With `CC(C)c1ccc2c(c1)c(SC(C)(C)C)c(CC(C)(C)C(=O)O)n2Cc1ccc(Cl)cc1` [MK886] the “fold change between the EC50 of senescent versus quiescent cells” value (from here on “fold change between the EC50”) ([5]; MK886 as single treatment) was 1.31 fold, the EC50 ([5]; MK886 as single treatment) was 34.7 µM and the “fold change between the EC50” value [5, 12] was 1.61 fold. The “fold change between the EC50” value ([5]; MK886 combined with 100 μM Diclofenac) was 1.88 fold, the “fold change between the EC50” value ([5]; MK886 combined with 200 μM Diclofenac) was 1.64 fold and the “fold change between the EC50” value ([5]; MK886 combined with 0.4 mM ASA) was 1.46 fold. For the same molecule, the “fold change between the EC50” value ([5]; MK886 combined with 0.4 mM ASA and 5 μM Oligomycin A) was 4.51 fold, the EC50 [5, 13] was 17.3 µM and the EC50 ([5]; increasing MK886 combined with 100 μM Diclofenac) was 11.2 µM. The EC50 ([5]; increasing MK886 combined with 200 μM Diclofenac) was 8.39 µM, the EC50 ([5]; increasing MK886 combined with 0.4 mM ASA and 5 μM Oligomycin A) was 9.9 µM and the EC50 [5, 14] was 30.4 µM. The “EC50 fold change between senescent and quiescent cells” value ([4]; increasing MK886 combined with 0.1 μM TrC and 25 μM Diclofenac) was “around 700 fold”, the “EC50 fold change between senescent and quiescent cells” value ([4]; increasing MK886 combined with 25 μM Diclofenac) was 5.11 fold and the “EC50 fold change between senescent and quiescent cells” value ([4]; single treatment) was 2.66 fold. The senolytic effect [2] was “significant senolytic effect”, the “fold change between the EC50” value ([6]; MK886 as single treatment) was 1.58 fold and the EC50 ([6]; MK886 as single treatment) was 26.4 µM. For the same molecule, the “fold change between the EC50” value ([6]; MK886 combined with 2 μM Celecoxib) was 2.55 fold, the “fold change between the EC50” value [6, 12] was 2.53 fold and the “fold change between the EC50” value ([6]; MK886 combined with 0.4 mM ASA) was 1.95 fold. For the same molecule, the EC50 ([6]; increasing MK886 combined with 2 μM Celecoxib) was 17 µM, the EC50 [6, 13] was 9 µM and the EC50 [6, 14] was 18.8 µM. The “intracellular AA levels” value [7] was “increased”, the “fold change between the EC50” value ([8]; MK886 as single treatment) was 1.49 fold and the EC50 ([8]; MK886 as single treatment) was 34 µM. The “fold change between the EC50” value [8, 12] was 2.52 fold, the “fold change between the EC50” value ([8]; MK886 combined with 0.4 mM ASA) was 1.51 fold and the “fold change between the EC50” value ([8]; MK886 combined with 0.4 mM ASA and 2 μM CsA) was 2.81 fold. The EC50 [8, 13] was 12.4 µM, the EC50 ([8]; increasing MK886 combined with 0.4 mM ASA and 2 μM CsA) was 14.9 µM and the EC50 [8, 14] was 29.6 µM. The senolytic effect ([9]; increasing MK886 combined with 0.5 μM TrC (dual inhibition of ACSL4 and ALOX5)) was “significant senolytic effect” and the senolytic effect [9, 15] was “not significant”.
With `CC1(C)CCC(c2ccc(Cl)cc2)=C(CN2CCN(c3ccc(C(=O)NS(=O)(=O)c4ccc(N[C@H](CCN5CCOCC5)CSc5ccccc5)c(S(=O)(=O)C(F)(F)F)c4)cc3)CC2)C1` [Navitoclax] the senolytic effect [3] was “significant senolytic effect” and the senolytic effect [9, 15] was “no senolytic effect”.
In the case of `O=c1c(O)c(-c2ccc(O)c(O)c2)oc2cc(O)cc(O)c12` [Quercetin], the IC50 (cyclooxygenase) is listed as no less than 100 µM.
With `CCC/C=C/C/C=C/C=C/C=N/NN=O` [TrC, Triacsin C] the “EC50 fold change between senescent and quiescent cells” value ([4]; single treatment) was “around 350 fold”, the “EC50 fold change between senescent and quiescent cells” value ([10]; TrC as single treatment) was 9.19 fold and the “EC50 fold change between senescent and quiescent cells” value ([10]; increasing TrC combined with 1 μM MK886 and 50 μM Diclofenac) was 13.75 fold. For the same molecule, the senolytic effect [9, 15] was “significant senolytic effect”.
For `CC(C)=CCC[C@]1(C)[C@@H](CC=C(C)C)C[C@@]2(CC=C(C)C)C(=O)[C@]1(C(=O)C(C)C)C(=O)C(CC=C(C)C)=C2O` [hyperforin], the “COX-1 inhibition relative to aspirin” value (COX-1) is listed as 3-18 times.
